Results as given in EP4678643A1, “KRAS INHIBITOR COMPOUND, PHARMACEUTICAL COMPOSITION THEREOF, AND USE THEREOF” (Sunshine Lake Pharma Co., Ltd., priority 2023, dated 2024).
Like-named read-outs stand apart in the source and are kept apart here.

Columns and labels:
[1] = test system: pERK in AGS cells (KRAS G12D); test: Inhibitory effect on intracellular pERK by In-Cell Western assay, AGS; type: cell-based; conditions: pERK inhibition, compound incubation 3 h, read-out: AGS, IC50 (nM) KRAS p.G12D
Method: (§1) 1. Determination of Inhibitory Effect on Intracellular pERK by In-Cell Western Assay
(§2) (1) On the first day, the following cells were revived and cultured with the corresponding culture medium and incubated at 37 °C, 5% CO2 until confluence.
(§3) (2) On the third day, the culture medium was removed, the cells were rinsed once with DPBS, 2 mL of TrypLE™ trypsin was added for digestion, and the cells were placed at room temperature until the cells detached. (3) 5 mL fresh culture medium was added to resuspend cells to terminate the digestion, and the cells were gently pipetted and centrifuged at 1000 rpm for 5 minutes at room temperature. (4) The supernatant was removed, and 5 mL fresh culture medium was added to resuspend the cells and count cells. (5) The cells were plated in a 384-well plate with appropriate cell concentration by adjusting with complete culture medium and incubated at 37 °C, 5% CO2 for overnight. (6) 200 nL of the prepared serial dilution compound (DMSO final concentration was 0.5%) was added and incubated at 37 °C, CO2 for 3 h (HPAC cell lines for 1 h). (7) The cells were fixed. (8) The cells were washed twice with PBS. (9) The blocking solution was added and the cells were incubated at room temperature for 1 h. (10) The blocking solution was removed, and the primary antibody (phospho-ERK Rabbit mAb + GAPDH (D4C6R) Mouse mAb) was added and the cells were incubated at 4 °C for overnight. (11) The cells were washed twice with PBST (PBS + 0.05% Tween 20) for 2 minutes each time. (12) PBST was removed and secondary antibody (IRDye 800CW Goat anti-Rabbit IgG (H+L) + IRDye 680RD Goat anti Mouse IgG (H+L)) was added and incubated away from light at room temperature. (14) Secondary antibody was discarded and the cell was washed twice with PBST, 2 minutes each time. (15) 384-well plate was inverted and centrifuged at 1000 rpm at room temperature for 1 minute, and the 384-well plate was scanned with Odyssey CLx.

[2] = test system: pERK in HCT 116 cells (KRAS p.G13D); test: Inhibitory effect on intracellular pERK by In-Cell Western assay, HCT 116; type: cell-based; conditions: Homo sapiens, pERK inhibition, compound incubation 3 h
Method: as §1, §2
as §3, with “CLx. (16) Data analysis: • a) Assay stability check was peformed by using DMSO and reference control data: [formula] [formula] • b) nonlinear fitting of Compound IC50: Y = Bottom + (Top−Bottom)/(1+10^(∧)((LogIC50−X)×HillSlope)). [formula]” for “CLx.”

[3] = test system: pERK in MKN1 cells (KRAS WTdep); test: Inhibitory effect on intracellular pERK by In-Cell Western assay, MKN1; type: cell-based; conditions: Homo sapiens, MKN-1, pERK inhibition, compound incubation 3 h
Method: as §1, §2
as §3, with “CLx. (16) Data analysis: • a) Assay stability check was peformed by using DMSO and reference control data: [formula] [formula] • b) nonlinear fitting of Compound IC50: Y = Bottom + (Top−Bottom)/(1+10^(∧)((LogIC50−X)×HillSlope)). [formula]” for “CLx.”

[4] = Pharmacokinetic evaluation by intravenous injection or oral gavage in mice
Method: (§4) Pharmacokinetic evaluation of the compounds of the present invention by intravenous injection or oral gavage in mice
(§5) The inventors conducted a pharmacokinetic evaluation of the compounds of this invention in mice.
(§6) The compounds of the present invention were administered to test animals in the form of a solution of 5% DMSO + 30% PEG400 + 65% saline, 10% DMSO + 10% Kolliphor HS15 + 80% Saline, 10% DMSO + 89% (25% SBE-B-CD) + (2% HCl), 20% PEG400 + 80% sterile water for injection, or 10% DMA + 10% HS15 + 30% PEG400 + 50% sterile water for injection. The animals were fasted for 12 hours before administration and had free access to water. For the intravenous administration group, the dose was 2 mg/kg/day, qd. Venous blood samples (approximately 0.15 mL) were collected at the following time points after administration: 0.083, 0.25, 0.5, 1.0, 2.0, 5.0, 7.0 and 24 hours. EDTA-K2 was pre-added to the blood collection tube as an anticoagulant. Blood samples were centrifuged at 12,000 rpm for 2 minutes, and plasma was collected and stored at -20°C or -70°C. For the intravenous administration group, the dose was 5 mg/kg/day, qd. Venous blood samples (approximately 0.15 mL) were collected at the following time points after administration: 0.25, 0.5, 1.0, 2.0, 5.0, 7.0 and 24 hours. EDTA-K2 was pre-added to the blood collection tube as an anticoagulant. Blood samples were centrifuged at 12,000 rpm for 2 minutes, and plasma was collected and stored at -20°C or -70°C.
(§7) The collected plasma samples were processed (frozen plasma was thawed at room temperature and vortexed for 15 seconds. 10-20 µL of plasma was added to 120-150 µL of acetonitrile solution containing the internal standard and vortexed for 5 minutes. The sample was centrifuged at 4,000 rpm for 5 minutes. 100 µL of the supernatant was added to 120-150 µL of methanol/water (v/v = 1/1) and mixed). The concentrations of the compounds in the plasma were analyzed by LC-MS/MS.

[5] = test system: pERK in H358 cells (KRAS p.G12C); test: Inhibitory effect on intracellular pERK by In-Cell Western assay, H358; type: cell-based; conditions: Homo sapiens, NCI-H358, pERK inhibition, compound incubation 3 h
Method: as §1, §2
as §3, with “CLx. (16) Data analysis: • a) Assay stability check was peformed by using DMSO and reference control data: [formula] [formula] • b) nonlinear fitting of Compound IC50: Y = Bottom + (Top−Bottom)/(1+10^(∧)((LogIC50−X)×HillSlope)). [formula]” for “CLx.”

[6] = test system: pERK in A549 cells (KRAS p.G12S); test: Inhibitory effect on intracellular pERK by In-Cell Western assay, A549; type: cell-based; conditions: Homo sapiens, pERK inhibition, compound incubation 3 h
Method: as §1, §2
as §3, with “CLx. (16) Data analysis: • a) Assay stability check was peformed by using DMSO and reference control data: [formula] [formula] • b) nonlinear fitting of Compound IC50: Y = Bottom + (Top−Bottom)/(1+10^(∧)((LogIC50−X)×HillSlope)). [formula]” for “CLx.”

in vivo = conditions: mouse
Method: as §4, §5, §6, §7

C#Cc1c(F)ccc2cc(O)cc(-c3nc(C#CC)c4c(N5CCCOCC5)nc(OCC56CCCN5CC(F)C6)nc4c3F)c12 (centres unmarked) [Compound 17]
IC50 [1]: 0.8 nM

C#Cc1c(F)ccc2cc(O)cc(-c3nc(C#CC)c4c(N5CCCOCC5)nc(OCC5(CN6CCOCC6)CC5)nc4c3F)c12 [Compound 19]
IC50 ([1]; Homo sapiens, AGS, 3 h): 6.4 nM

C#Cc1c(F)ccc2cc(N)cc(-c3nc(C#CC)c4c(N5CCCOCC5)nc(OC[C@@]56CCCN5C[C@H](F)C6)nc4c3F)c12 [Compound 22]
IC50 ([1]; Homo sapiens, AGS, 3 h): 2.8 nM

CC#Cc1nc(-c2cc(O)cc3cccc(Cl)c23)c(F)c2nc(OC[C@@]34CCCN3C[C@H](F)C4)nc(N3CCCOCC3)c12 [Compound 23]
IC50 ([1]; Homo sapiens, AGS, 3 h): 6.1 nM

CC#Cc1nc(-c2cc(O)cc3cccc(F)c23)c(F)c2nc(OC[C@@]34CCCN3C[C@H](F)C4)nc(N3CCCOCC3)c12 [Compound 24]
IC50 ([1]; Homo sapiens, AGS): 5.4 nM

C#Cc1c(F)ccc2cc(O)cc(-c3nc(C#CC)c4c(N5CCCCC(F)C5)nc(OC[C@@]56CCCN5C[C@H](F)C6)nc4c3F)c12 (some centres unmarked) [Compound 25]
IC50 [2]: 7.9 nM
IC50 [3]: 3 nM
F_AUCT NF ([4]; mice, 5 mg/kg/day ig administration versus 2 mg/kg/day iv): 23%
AUC(0-inf) ([4]; mouse, plasma, iv, 2 mg/kg/day): 10800 ng·h/mL
AUC(0-t) ([4]; mouse, plasma, iv, 2 mg/kg/day): 10600 ng·h/mL
Cmax ([4]; mouse, plasma, iv, 2 mg/kg/day): 9950 ng/mL
MRT last ([4]; mouse, plasma, iv, 2 mg/kg/day): 1.3 h
Tmax ([4]; mouse, plasma, iv, 2 mg/kg/day): 0.083 h
clearance ([4]; mouse, plasma, iv, 2 mg/kg/day): 3.2 mL/min/kg
half-life ([4]; mouse, plasma, iv, 2 mg/kg/day): 1.2 h
AUC(0-inf) ([4]; mouse, plasma, po, 5 mg/kg/day): 6140 ng·h/mL
AUC(0-t) ([4]; mouse, plasma, po, 5 mg/kg/day): 5960 ng·h/mL
Cmax ([4]; mouse, plasma, po, 5 mg/kg/day): 2660 ng/mL
MRT last ([4]; mouse, plasma, po, 5 mg/kg/day): 1.7 h
Tmax ([4]; mouse, plasma, po, 5 mg/kg/day): 0.42 h
half-life ([4]; mouse, plasma, po, 5 mg/kg/day): 1.3 h
pharmacokinetic properties in mice ([4]; result in words): good pharmacokinetic properties
IC50 [5]: 0.8 nM
IC50 ([1]; Homo sapiens, AGS): 0.8 nM
IC50 [6]: 2.3 nM

C#Cc1c(F)ccc2cc(O)cc(-c3nc(C#CCC)c4c(N5CCCCC(F)C5)nc(OC[C@@]56CCCN5C[C@H](F)C6)nc4c3F)c12 (some centres unmarked) [Compound 26]
IC50 [2]: 47.3 nM
IC50 [3]: 21.5 nM
IC50 [5]: 3.9 nM
IC50 ([1]; Homo sapiens, AGS, 3 h): 3.2 nM
AUC(0-inf) (in vivo; iv, 2 mg/kg/day): 8110 ng·h/mL
AUC(0-t) (in vivo; iv, 2 mg/kg/day): 8050 ng·h/mL
Cmax (in vivo; iv, 2 mg/kg/day): 8280 ng/mL
MRT last (in vivo; iv, 2 mg/kg/day): 1.2 h
Tmax (in vivo; iv, 2 mg/kg/day): 0.083 h
Vd (in vivo; iv, 2 mg/kg/day): 0.3 L/kg
clearance (in vivo; iv, 2 mg/kg/day): 4.1 mL/min/kg
half-life (in vivo; iv, 2 mg/kg/day): 1 h
AUC(0-inf) (in vivo; po, 5 mg/kg/day): 4240 ng·h/mL
AUC(0-t) (in vivo; po, 5 mg/kg/day): 4120 ng·h/mL
Cmax (in vivo; po, 5 mg/kg/day): 1630 ng/mL
MRT last (in vivo; po, 5 mg/kg/day): 1.8 h
Tmax (in vivo; po, 5 mg/kg/day): 0.5 h
half-life (in vivo; po, 5 mg/kg/day): 1.3 h
IC50 [6]: 15.1 nM

C#Cc1c(F)ccc2cc(O)cc(-c3nc(C#CC)c4c(N5CCCCC(F)(F)C5)nc(OC[C@@]56CCCN5C[C@H](F)C6)nc4c3F)c12 [Compound 27]
IC50 [2]: 19.5 nM
IC50 [3]: 4.5 nM
IC50 [5]: 2 nM
IC50 ([1]; Homo sapiens, AGS, 3 h): 5.2 nM
IC50 [6]: 5.1 nM

C#Cc1c(F)ccc2cc(O)cc(-c3nc(C#CC)c4c(N5CCCCCC5)nc(OC[C@@]56CCCN5C[C@H](F)C6)nc4c3F)c12 [Compound 29]
IC50 [2]: 15.2 nM
IC50 [3]: 3.6 nM
IC50 [5]: 2.2 nM
IC50 ([1]; Homo sapiens, AGS, 3 h): 1.4 nM
IC50 [6]: 6.2 nM

C#Cc1c(F)ccc2cc(O)cc(-c3nc(C#CCC)c4c(N5CCCCCC5)nc(OC[C@@]56CCCN5C[C@H](F)C6)nc4c3F)c12 [Compound 30]
IC50 ([1]; Homo sapiens, AGS, 3 h): 6.8 nM

CCC#Cc1nc(-c2cc(O)cc3ccc(F)c(CC)c23)c(F)c2nc(OC[C@@]34CCCN3C[C@H](F)C4)nc(N3CCCCC(=O)C3)c12 [Compound 33]
IC50 ([1]; Homo sapiens, AGS, 3 h): 4.1 nM

CC#Cc1nc(-c2cc(O)cc3ccc(F)c(CC)c23)c(F)c2nc(OCC34CCCN3CCC4)nc(N3CCCCC(=O)C3)c12 [Compound 35]
IC50 ([1]; Homo sapiens, AGS, 3 h): 4.4 nM

C#Cc1c(F)ccc2cc(O)cc(-c3nc(C#CC)c4c(N5CCOCC(F)(F)C5)nc(OC[C@@]56CCCN5C[C@H](F)C6)nc4c3F)c12 [Compound 38]
IC50 [2]: 5.4 nM
IC50 [3]: 1.41 nM
IC50 [5]: 0.4 nM
IC50 ([1]; Homo sapiens, AGS, 3 h): 1.6 nM
IC50 [6]: 1.2 nM
